Literature values as cited in paper PMC9516332 (Frontiers in Oncology, 2022).
Read-outs that look alike come from different tables or passages of the source.

Legend:
[1] = target: T1, panel of 255 wild-type kinases (Homo sapiens, UniProt O94806); details: kinase PKD3, 1 µmol/L single concentration, cited from earlier work
T1 sequence (O94806 1-890): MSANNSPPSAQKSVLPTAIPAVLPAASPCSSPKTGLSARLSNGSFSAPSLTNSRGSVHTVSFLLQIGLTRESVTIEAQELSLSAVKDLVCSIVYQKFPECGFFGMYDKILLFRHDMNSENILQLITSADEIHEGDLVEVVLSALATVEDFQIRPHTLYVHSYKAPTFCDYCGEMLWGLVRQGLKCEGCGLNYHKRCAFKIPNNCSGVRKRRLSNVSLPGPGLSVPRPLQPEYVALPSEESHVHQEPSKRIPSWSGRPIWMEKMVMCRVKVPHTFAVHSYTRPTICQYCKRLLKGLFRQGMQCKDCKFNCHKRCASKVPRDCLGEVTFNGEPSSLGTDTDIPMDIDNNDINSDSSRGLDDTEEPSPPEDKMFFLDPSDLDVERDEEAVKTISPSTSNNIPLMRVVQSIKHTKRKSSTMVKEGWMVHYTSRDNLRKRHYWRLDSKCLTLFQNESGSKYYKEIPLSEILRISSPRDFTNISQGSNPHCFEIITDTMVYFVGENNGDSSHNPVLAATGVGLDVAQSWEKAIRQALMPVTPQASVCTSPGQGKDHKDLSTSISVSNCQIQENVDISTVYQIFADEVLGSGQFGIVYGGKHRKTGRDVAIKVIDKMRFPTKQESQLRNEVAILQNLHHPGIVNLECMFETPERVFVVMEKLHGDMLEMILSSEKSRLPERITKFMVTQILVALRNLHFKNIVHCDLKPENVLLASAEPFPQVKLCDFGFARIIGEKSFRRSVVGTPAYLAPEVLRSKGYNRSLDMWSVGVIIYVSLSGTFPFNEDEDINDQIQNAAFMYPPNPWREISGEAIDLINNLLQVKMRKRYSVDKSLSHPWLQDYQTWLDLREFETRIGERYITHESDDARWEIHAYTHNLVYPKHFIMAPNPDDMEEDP

[2] = target: panel of 255 wild-type kinases (Homo sapiens, UniProt P00519); details: ABL kinase assay, 1 µmol/L single concentration, cited from earlier work
[3] = target: panel of 255 wild-type kinases (Homo sapiens, UniProt P04629); details: kinase TRKA, 1 µmol/L single concentration, cited from earlier work
[4] = target: panel of 255 wild-type kinases (Homo sapiens, UniProt P06241); details: kinase FYN [isoform a], 1 µmol/L single concentration, cited from earlier work
[5] = target: panel of 255 wild-type kinases (Homo sapiens, UniProt P07332); details: kinase FES, 1 µmol/L single concentration, cited from earlier work
[6] = target: panel of 255 wild-type kinases (Homo sapiens, UniProt P10721); details: kinase KIT, 1 µmol/L single concentration, cited from earlier work
[7] = target: panel of 255 wild-type kinases (Homo sapiens, UniProt P22612); details: kinase PKACγ, 1 µmol/L single concentration, cited from earlier work
[8] = target: panel of 255 wild-type kinases (Homo sapiens, UniProt P31749); details: AKT1 kinase assay, 1 µmol/L single concentration, cited from earlier work
[9] = target: T2, panel of 255 wild-type kinases (Homo sapiens, UniProt Q08881); details: kinase ITK, 1 µmol/L single concentration, cited from earlier work
T2 sequence (Q08881 1-620): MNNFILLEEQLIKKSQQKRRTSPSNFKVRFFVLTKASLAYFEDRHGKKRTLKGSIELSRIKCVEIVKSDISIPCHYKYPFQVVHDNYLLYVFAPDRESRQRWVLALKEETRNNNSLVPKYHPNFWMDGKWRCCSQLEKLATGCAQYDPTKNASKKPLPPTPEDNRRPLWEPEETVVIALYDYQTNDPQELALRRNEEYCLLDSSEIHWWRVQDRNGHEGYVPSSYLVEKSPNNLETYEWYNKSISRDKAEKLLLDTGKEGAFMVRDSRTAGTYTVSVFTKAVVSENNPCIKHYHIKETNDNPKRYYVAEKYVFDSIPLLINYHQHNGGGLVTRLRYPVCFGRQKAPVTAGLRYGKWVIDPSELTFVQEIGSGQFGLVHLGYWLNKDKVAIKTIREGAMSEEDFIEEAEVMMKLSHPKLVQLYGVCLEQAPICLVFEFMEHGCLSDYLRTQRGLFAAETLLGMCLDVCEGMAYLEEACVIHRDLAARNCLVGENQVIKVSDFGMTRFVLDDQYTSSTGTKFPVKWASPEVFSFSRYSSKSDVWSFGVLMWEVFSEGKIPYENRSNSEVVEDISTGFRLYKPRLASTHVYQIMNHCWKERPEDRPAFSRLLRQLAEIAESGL

[10] = target: panel of 255 wild-type kinases (Homo sapiens, UniProt Q13464); details: kinase ROCK1, 1 µmol/L single concentration, cited from earlier work
[11] = target: panel of 255 wild-type kinases (Homo sapiens, UniProt Q16539); details: p38α, 1 µmol/L single concentration, cited from earlier work
[12] = target: panel of 255 wild-type kinases (Homo sapiens, UniProt Q9UPE1); details: MSSK1, 1 µmol/L single concentration, cited from earlier work
[13] = ref DOI: 10.1158/1535-7163.MCT-18-0877
[14] = ref DOI: 10.1371/journal.pone.0092146

C=CC(=O)Nc1cc(Nc2nccc(-c3cn(C)c4ccccc34)n2)c(OC)cc1N(C)CCN(C)C [osimertinib]
%-inhibition at 1 µmol/L, PKD3 [1, 13]: 28%
%-inhibition ABL [2, 13]: 4.62%
%-inhibition at 1 µmol/L, TRKA [3, 13]: 27%
%-inhibition at 1 µmol/L, FYN [isoform a] [4, 13]: 0.721%
%-inhibition at 1 µmol/L, FES [5, 13]: 42%
%-inhibition at 1 µmol/L, KIT [6, 13]: -13%
%-inhibition at 1 µmol/L, PKACγ [7, 13]: 7.4%
%-inhibition AKT1 [8, 13]: -9%
%-inhibition at 1 µmol/L, ITK [9, 13]: 62%
%-inhibition at 1 µmol/L, ROCK1 [10, 13]: -5%
%-inhibition, p38α [11, 13]: -6%
%-inhibition, MSSK1 [12, 13]: 0.582%

CC(=O)Nc1cccc(-n2c(=O)n(C3CC3)c(=O)c3c(Nc4ccc(I)cc4F)n(C)c(=O)c(C)c32)c1 [trametinib]
%-inhibition at 1 µmol/L, PKD3 [1, 14]: 2.48%
%-inhibition ABL [2, 14]: -8%
%-inhibition at 1 µmol/L, TRKA [3, 14]: -1.17%
%-inhibition at 1 µmol/L, FYN [isoform a] [4, 14]: 9%
%-inhibition at 1 µmol/L, FES [5, 14]: -1.55%
%-inhibition at 1 µmol/L, KIT [6, 14]: -0.648%
%-inhibition at 1 µmol/L, PKACγ [7, 14]: 2%
%-inhibition AKT1 [8, 14]: -3%
%-inhibition at 1 µmol/L, ITK [9, 14]: -7.56%
%-inhibition at 1 µmol/L, ROCK1 [10, 14]: 3.21%
%-inhibition, p38α [11, 14]: -4%
%-inhibition, MSSK1 [12, 14]: -5%

CCCS(=O)(=O)Nc1ccc(F)c(C(=O)c2c[nH]c3ncc(-c4ccc(Cl)cc4)cc23)c1F [vemurafenib]
%-inhibition at 1 µmol/L, PKD3 [1, 14]: -4.7%
%-inhibition ABL [2, 14]: 15%
%-inhibition at 1 µmol/L, TRKA [3, 14]: 16%
%-inhibition at 1 µmol/L, FYN [isoform a] [4, 14]: 81%
%-inhibition at 1 µmol/L, FES [5, 14]: 18%
%-inhibition at 1 µmol/L, KIT [6, 14]: 58%
%-inhibition at 1 µmol/L, PKACγ [7, 14]: -3%
%-inhibition AKT1 [8, 14]: -4.52%
%-inhibition at 1 µmol/L, ITK [9, 14]: 3%
%-inhibition at 1 µmol/L, ROCK1 [10, 14]: 1.28%
%-inhibition, p38α [11, 14]: 10%
%-inhibition, MSSK1 [12, 14]: -6.65%
